Results: PubChem BioAssay AID1996
≈ marks a conversion by molar mass, not a printed value.

conditions: buffer; pH 7.4; 200.0 µM

Question: For O=C1CCCN1CCCNc1ncccc1[N+](=O)[O-], which solubility kinetic is on record?
Answer: The solubility kinetic was over 39.6 µg/mL.

Question: Which solubility kinetic does the source give for CCNC(=O)CC1C(=O)N(c2ccc(C)cc2)C(=O)N1CCOC (stereo unspecified) here?
Answer: Its solubility kinetic is over 50 µg/mL.

Question: For Cl.ClCCN1CCN(c2ccnc3cc(Cl)ccc23)CC1, which solubility kinetic is on record?
Answer: The solubility kinetic was over 57.5 µg/mL.

Question: With O=C(CCNC(=O)c1ccccc1)Nc1cccnc1 as the molecule, how does the solubility kinetic read?
Answer: Its solubility kinetic is over 40.4 µg/mL.

Question: Which solubility kinetic does the source give for Cn1ccnc1C1CCCCN1Cc1nc(Cc2ccccc2F)no1 (stereo unspecified) here?
Answer: Its solubility kinetic is 49.9 µg/mL (≈ 140 µM).

Question: For COc1ccc(-c2ccc(CCC(=O)O)n2NC(=O)c2ccc(O)cc2)cc1, which solubility kinetic is on record?
Answer: Its solubility kinetic is over 57.1 µg/mL.

Question: Which solubility kinetic does the source give for CC(C)CNC(=O)CN1c2cccc3cccc(c23)S1(=O)=O here?
Answer: Its solubility kinetic is over 47.8 µg/mL.

Question: With CC(C)c1ccccc1NC(=O)Nc1ccc(F)cc1F as the molecule, how does the solubility kinetic read?
Answer: Its solubility kinetic is 2.7 µg/mL (≈ 9.3 µM).

Question: Which solubility kinetic does the source give for Cc1ccc(NC(=O)C(C)SCc2ccccc2)cc1 (stereo unspecified) here?
Answer: Its solubility kinetic is 32.8 µg/mL (≈ 115 µM).

Question: With O=C(/C=C/c1cccs1)N1CCN(c2ccccc2)CC1 as the molecule, how does the solubility kinetic read?
Answer: Its solubility kinetic is 1.6 µg/mL (≈ 5.36 µM).

Question: For Cc1ccc(C2=Nc3ccccc3N=C(C(Cl)Cl)C2)cc1, which solubility kinetic is on record?
Answer: The solubility kinetic was 3.1 µg/mL (≈ 9.77 µM).

Question: For O=C(O)/C=C/C(=O)Nc1ccc(Cc2ccc(NC(=O)/C=C/C(=O)O)cc2)cc1, which solubility kinetic is on record?
Answer: Its solubility kinetic is 58 µg/mL (≈ 147 µM).

Question: With O=C(/C=C/c1ccccc1)NC(=O)c1ccccc1O as the molecule, how does the solubility kinetic read?
Answer: Its solubility kinetic is 1.4 µg/mL (≈ 5.24 µM).

Question: For Cc1cc(C)c(S(=O)(=O)c2ccccc2)c(=O)[nH]1, which solubility kinetic is on record?
Answer: The solubility kinetic was over 39.5 µg/mL.

Question: With CC(=O)c1ccc(N(CC(=O)Nc2cc(C)on2)S(=O)(=O)c2ccc(C)cc2)cc1 as the molecule, how does the solubility kinetic read?
Answer: Its solubility kinetic is 6.2 µg/mL (≈ 14.5 µM).

Question: With C=CCC1c2cccc(C(=O)O)c2C(=O)N1c1cccc(OC)c1 (stereo unspecified) as the molecule, how does the solubility kinetic read?
Answer: Its solubility kinetic is over 48.5 µg/mL.

Question: Which solubility kinetic does the source give for Cc1c(C)[n+](=O)c2c(n1[O-])C(Br)CCC2Br (stereo unspecified) here?
Answer: The solubility kinetic was over 52.8 µg/mL.

Question: Which solubility kinetic does the source give for CC(=O)c1cccc(NC(=O)CCC(=O)c2ccc(F)cc2)c1 here?
Answer: Its solubility kinetic is 3.8 µg/mL (≈ 12.1 µM).

Question: Which solubility kinetic does the source give for Cc1ccc(C)c2c1N(Cc1ccccc1)C(=O)C21OCCO1 here?
Answer: The solubility kinetic was under 0.7 µg/mL.

Question: Which solubility kinetic does the source give for CC(C)CN1CCNC(=O)C1CC(=O)N(C)CC1CCOCC1 (stereo unspecified) here?
Answer: The solubility kinetic was 45.7 µg/mL (≈ 140 µM).

Question: With CCC(=O)Oc1ccc(NC(=O)c2ccco2)cc1 as the molecule, how does the solubility kinetic read?
Answer: Its solubility kinetic is over 38.9 µg/mL.

Question: With CC1CCCCN1C(=O)CSc1nc2ncccc2[nH]1 (stereo unspecified) as the molecule, how does the solubility kinetic read?
Answer: The solubility kinetic was over 43.6 µg/mL.

Question: For Fc1ccccc1CN1CCC(Cc2ccccc2)CC1, which solubility kinetic is on record?
Answer: The solubility kinetic was 25.9 µg/mL (≈ 91.4 µM).

Question: For CC(Nc1ccccc1)c1cccnc1 (stereo unspecified), which solubility kinetic is on record?
Answer: The solubility kinetic was over 29.7 µg/mL.

Question: With Cc1cccc2sc(NS(=O)(=O)c3ccccc3)nc12 as the molecule, how does the solubility kinetic read?
Answer: The solubility kinetic was over 45.7 µg/mL.

Question: Which solubility kinetic does the source give for Cc1cc(C(=O)OCC(=O)Nc2ccccc2C(F)(F)F)on1 here?
Answer: Its solubility kinetic is over 49.2 µg/mL.

Question: With COCCCNC(=O)c1cc(-c2cccnc2)nc2ccccc12 as the molecule, how does the solubility kinetic read?
Answer: The solubility kinetic was over 48.2 µg/mL.

Question: For CC1CCCC(C)N1C(=O)COC(=O)c1c[nH]c2ccccc12 (stereo unspecified), which solubility kinetic is on record?
Answer: The solubility kinetic was 8.1 µg/mL (≈ 25.8 µM).

Question: Which solubility kinetic does the source give for O=C(O)CSc1ccnc2cc(Cl)ccc12 here?
Answer: Its solubility kinetic is over 38.1 µg/mL.

Question: For O=C(Nc1ccc(Cl)cc1)OC1CN2CCC1CC2 (stereo unspecified), which solubility kinetic is on record?
Answer: The solubility kinetic was 40.5 µg/mL (≈ 144 µM).

Question: For COP(=O)(OC)C(Nc1ccccc1)c1ccccc1 (stereo unspecified), which solubility kinetic is on record?
Answer: The solubility kinetic was over 43.7 µg/mL.

Question: With NS(=O)(=O)c1ccc(NC2=CC(=O)C(=O)c3ccccc32)cc1 as the molecule, how does the solubility kinetic read?
Answer: Its solubility kinetic is 13.6 µg/mL (≈ 41.4 µM).

Question: For Cc1ccc2cccc(OCC(=O)N3CC(C)CC(C)C3)c2n1 (stereo unspecified), which solubility kinetic is on record?
Answer: Its solubility kinetic is 46.2 µg/mL (≈ 148 µM).

Question: For CCCCn1c(O)c(/C=C2/C=CC=N2)c(=O)[nH]c1=O, which solubility kinetic is on record?
Answer: The solubility kinetic was 5.1 µg/mL (≈ 19.5 µM).

Question: For COc1ccc(/C=N/NC(=O)c2ccc3nc[nH]c3c2)cc1, which solubility kinetic is on record?
Answer: The solubility kinetic was over 44.1 µg/mL.

Question: With COc1ccccc1CN(C)CC(=O)Nc1cccc2ccccc12 as the molecule, how does the solubility kinetic read?
Answer: Its solubility kinetic is 18.9 µg/mL (≈ 56.5 µM).

Question: With O=C(NCC1CCCN(C2Cc3ccccc3C2)C1)c1cccs1 (stereo unspecified) as the molecule, how does the solubility kinetic read?
Answer: The solubility kinetic was 40.1 µg/mL (≈ 118 µM).

Question: For Cc1nn(CC(=O)OCC(=O)Nc2cccc(S(N)(=O)=O)c2)c(C)c1[N+](=O)[O-], which solubility kinetic is on record?
Answer: Its solubility kinetic is over 61.7 µg/mL.

Question: Which solubility kinetic does the source give for CC(C(=O)N1CCN=C1c1ccccc1)N1C(=O)c2ccccc2C1=O (stereo unspecified) here?
Answer: The solubility kinetic was over 52.1 µg/mL.

Question: Which solubility kinetic does the source give for O=c1nc(SCc2ccc(Cl)cc2)nc(-c2ccccc2)[nH]1 here?
Answer: Its solubility kinetic is 4.5 µg/mL (≈ 13.6 µM).

Question: With Cc1ccccc1OC(C)C(=O)Nc1cccnc1 (stereo unspecified) as the molecule, how does the solubility kinetic read?
Answer: Its solubility kinetic is 36.6 µg/mL (≈ 143 µM).

Question: Which solubility kinetic does the source give for NC(=O)c1ccc(CSc2nc3ccccc3s2)cc1 here?
Answer: Its solubility kinetic is 1.4 µg/mL (≈ 4.66 µM).

Question: For CCOCCCNC(c1ccccc1)c1ccncc1 (stereo unspecified), which solubility kinetic is on record?
Answer: The solubility kinetic was 38 µg/mL (≈ 141 µM).

Question: For Cc1ccc(N2CC(C(=O)NC3CC3)CC2=O)cc1Cl (stereo unspecified), which solubility kinetic is on record?
Answer: Its solubility kinetic is over 43.9 µg/mL.

Question: Which solubility kinetic does the source give for O=S1(=O)CCN(Cc2csc(-c3cccs3)n2)CC1 here?
Answer: Its solubility kinetic is over 47.2 µg/mL.

Question: For CCN(CC)CCn1c(C)nc2ccccc21.Cl, which solubility kinetic is on record?
Answer: The solubility kinetic was 40.6 µg/mL.

Question: For COc1ccc2c(=O)c(C(=O)NCCc3ccccc3)c[nH]c2c1, which solubility kinetic is on record?
Answer: Its solubility kinetic is 5.2 µg/mL (≈ 16.1 µM).

Question: With COc1ccc(Cl)cc1NC(=O)COC(=O)C1CC1 as the molecule, how does the solubility kinetic read?
Answer: The solubility kinetic was 34.4 µg/mL (≈ 121 µM).

Question: With COc1ccccc1-c1cc(C(=O)N2CCCC2)no1 as the molecule, how does the solubility kinetic read?
Answer: The solubility kinetic was over 40.8 µg/mL.

Question: Which solubility kinetic does the source give for CCC1CCCCN1CC(=O)Nc1ccc2c(c1)OCCO2 (stereo unspecified) here?
Answer: The solubility kinetic was over 45.7 µg/mL.

Question: For CCOc1ccccc1NC(=S)NCc1ccccc1, which solubility kinetic is on record?
Answer: Its solubility kinetic is 38.8 µg/mL (≈ 135 µM).

Question: For CN1CCN(CCn2c(=S)[nH]c3ccccc3c2=O)CC1, which solubility kinetic is on record?
Answer: Its solubility kinetic is over 45.7 µg/mL.

Question: For NC(=S)/N=C/c1c(O)[nH]c(=O)[nH]c1=O, which solubility kinetic is on record?
Answer: Its solubility kinetic is 15.6 µg/mL (≈ 72.8 µM).

Question: For Nc1cc(N)nc(SCC(=O)NCCC2=CCCCC2)n1, which solubility kinetic is on record?
Answer: Its solubility kinetic is over 46.1 µg/mL.

Question: With Cc1nc2ccc(NC(=O)c3ccc([N+](=O)[O-])cc3)cc2[nH]1 as the molecule, how does the solubility kinetic read?
Answer: Its solubility kinetic is 30.6 µg/mL (≈ 103 µM).

Question: With CC(=O)c1ccc(N=C2C(=O)Nc3ccccc32)cc1 as the molecule, how does the solubility kinetic read?
Answer: Its solubility kinetic is 36.6 µg/mL (≈ 138 µM).

Question: Which solubility kinetic does the source give for CC1CN(C(=O)COC(=O)c2cc(Cl)ccc2Cl)CC(C)O1 (stereo unspecified) here?
Answer: The solubility kinetic was over 51.9 µg/mL.

Question: Which solubility kinetic does the source give for COCc1cc(C)n(CC(=O)NCC2CCCO2)c(=O)c1C#N (stereo unspecified) here?
Answer: Its solubility kinetic is 41.8 µg/mL (≈ 131 µM).

Question: For Nc1nc(NCCOCCO)nc(NCc2ccccc2)c1[N+](=O)[O-], which solubility kinetic is on record?
Answer: Its solubility kinetic is over 52.3 µg/mL.

Question: Which solubility kinetic does the source give for CC(OC(=O)C1=COCCO1)C(=O)NC1CCCCC1C (stereo unspecified) here?
Answer: The solubility kinetic was over 44.6 µg/mL.

Question: For CN1CC(=O)N(CC(=O)NC2CCCCC2)C1=O, which solubility kinetic is on record?
Answer: The solubility kinetic was over 38 µg/mL.
